According to patent publication US4618610A, “Triazine derivatives, and pharmaceutical compositions comprising the same” (Fujisawa Pharmaceutical Co., Ltd., priority 1983, dated 1986):
pIC50: −log10 of the molar value. Read-outs that look alike come from different tables or passages of the source.

Columns and labels:
blood pressure = test: Test method A: antihypertensive activity, oral, in uninephrectomized DOCA/saline rats; type: in vivo, rat (Wister); details: orally, DOCA rats, mean arterial pressure
Description: Five-week old male Wister rats were uninephrectomized under anesthesia. Deoxycorticosterone […] (DOCA) (30 mg/kg), suspended in peanut oil, was injected subcutaneously twice a week and 1% saline was substituted for the drinking water. Animals with mean blood pressure 150-200 mmHg were used for experiment between 5 and 7 weeks after surgery.
The test compounds were administered orally.
Blood pressure was measured at the femoral artery by means of a pressure transducer and recorded as electrically integrated values of mean arterial pressure.
a: The test compound were administered orally in a dose of 1 mg/kg.
b: The test compound were administered orally in dose of 0.1 mg/kg.

platelet = test: Test Method B: inhibition of platelet aggregation in platelet rich plasma; type: cell-based; details: Oryctolagus cuniculus, rabbit PRP, 37° C.
Description: Platelet rich plasma (PRP) which contains 6.5-7.5×10^8 platelet/ml was prepared from rabbit blood. To the 200 ul of PRP, 5 μl of calcium chloride (1 mM) and 50 μl of pH 7.4 Tris-acetate solution (5 mM) containing 120 mM NaCl and test compound were added successively, and then stirred for 2 min. at 37° C. To the solution, 5 μl of adenosine diphosphate (ADP) (2.5 μM) or collagen (2.5 ug/ml) was added as an aggregation inducer. Aggregation was measured by using an aggregometer (NKK HEMA TRACER 1).

ethanol ulcer = test: Test methods C: ethanol ulcer (antiulcer activity); type: in vivo, rat (Sprague-Dawley); details: 32 mg/kg orally, 30 minutes before absolute ethanol (5 ml/kg)
Description: Five male Sprague-Dawley rats, aged 7 weeks and weighing about 200 g, were used per group for the study on ethanol ulcer after the fast for 24 hours.
Test compound was suspended in 0.1% methylcellulose aqueous solution, and the suspension (5 ml/kg) was orally given to each rat.
The control group was given a vehicle, i.e. 0.1% methylcellulose aqueous solution (5 ml/kg), alone in the same way.
Absolute ethanol (5 ml/kg) was orally administered 30 minutes after dosing with test compound, and one hour later, the rats were sacrificed and their stomachs were removed. The area of ulcers of each rat was measured. The mean area (mm^2) in the medicated group was compared with that in the control group.

[1] = ADP (2.5 μM) as aggregation inducer, read-out: ID50 ADP (platelet aggregation)
[2] = collagen (2.5 ug/ml) as aggregation inducer, read-out: ID50 Collagen (platelet aggregation)

Row | SMILES | pIC50 (platelet; [1]) | pIC50 (platelet; [2]) | Effect Max (mean ratio of maximum decrease of blood pressure) (blood pressure; dose a: 1 mg/kg) [%] | Effect Max (mean ratio of maximum decrease of blood pressure) (blood pressure; dose b: 0.1 mg/kg) [%] | Effect (mean ulcer area compared with control group) (ethanol ulcer) [%]
1 | CC(=O)Nc1ccc(C2=NNC(=S)NC2C)cc1 (stereo not shown) [Example 23-(3), 6-(4-acetamidophenyl)-5-methyl-4,5-dihydro-1,2,4-triazin-3(2H)-thione] | – | – | – | – | 87.0
2 | CCOC(=O)Nc1ccc(C2=NNC(=O)NC2C)cc1 (stereo not shown) [Example 24-(4), 6-(4-Ethoxycarbonylaminophenyl)-5-methyl-4,5-dihydro-1,2,4-triazin-3(2H)-one] | 6.42 | 7.16 | 54.5 | 28.6 | –
3 | CC1NC(=O)NN=C1c1ccc(NC(=O)C2CC2)cc1 (stereo not shown) [Example 24-(10), 6-(4-Cyclopropanecarbonylaminophenyl)-5-methyl-4,5-dihydro-1,2,4-triazin-3(2H)-one] | 7.47 | 8.51 | – | 41.1 | –

The next lines start with results.

Row | pIC50 (platelet; [1]) | pIC50 (platelet; [2]) | SMILES | Effect Max (mean ratio of maximum decrease of blood pressure) (blood pressure; dose a: 1 mg/kg) [%] | Effect Max (mean ratio of maximum decrease of blood pressure) (blood pressure; dose b: 0.1 mg/kg) [%] | Effect (mean ulcer area compared with control group) (ethanol ulcer) [%]
4 | 6.21 | 6.66 | CC(=O)Nc1ccc(C2=NNC(=O)NC2C)cc1 (stereo not shown) [Example 1-(3), 6-(4-acetamidophenyl)-5-methyl-4,5-dihydro-1,2,4-triazin-3(2H)-one] | 48.9 | 19.2 | –
5 | 6.13 | 6.39 | CNC(=O)Nc1ccc(C2=NNC(=O)NC2C)cc1 (stereo not shown) [Example 6, 6-[4-(3-methylureido)phenyl]-5-methyl-4,5-dihydro-1,2,4-triazin-3(2H)-one] | 43.1 | 6.6 | –
